Test results taken from article PMC10247778, “PXL1 and SERKs act as receptor–coreceptor complexes for the CLE19 peptide to regulate pollen development” (Nature Communications, 2023).
“Also recorded” adds a separate entry of the source. Ends that are not written are not given here.

Key:
[1] = molecular target: PXL1^∆KD–SERK1^∆KD interaction; experiment: Co-IP PXL1^∆KD-SERK1^∆KD in Nicotiana benthamiana; assay type: cell-based, Arabidopsis; details: N. benthamiana leaves, with or without peptide 3–4 h; GFP-Trap, anti-Myc
Description: The 825 bp SERK1 (SERK1^∆KD), 834 bp SERK2 (SERK2^∆KD) and the 927 bp SERK3/BAK1 (BAK1^∆KD) coding regions were amplified with the primers listed in Supplementary Table 3. The PCR products of SERK1^∆KD, SERK2^∆KD and BAK1^∆KD were inserted into the pCAMBIA1306-GFP vector at the KpnI and SalI sites to generate the pCAMBIA1306-SERK1^∆KD/2/BAK1^∆KD-GFP constructs. pCAMBIA1306-PXL^∆KD -MYC, pCAMBIA1306-SERK1^∆KD GFP and pCAMBIA1306-BAK1^∆KD-GFP were transferred into the Agrobacterium tumefaciens GV3101 strain.
The cultures were grown overnight in 2 x YT medium and resuspended to optical density at 600 nm (OD600) = 2.0 in an injection buffer (150 μM acetosyringone, 10 mM MgCl2 and 10 mM MES). […]
Total proteins were extracted from the N. benthamiana leaves with the extraction buffer (50 mM Tris-HCl (pH 7.5), 150 mM NaCl, 5 mM EDTA, 5% glycerol, 1% Triton X-100 with protease inhibitor, phosphatase inhibitor, and PMSF) and then incubated with GFP-Trap beads (Chromo Tek) at 4 °C for 4 h, followed by two washes (50 mM Tris-HCl (pH 7.5), 150 mM NaCl, 5 mM EDTA, 5% glycerol, and 0.01% Triton X-100). Proteins were separated on SDS-PAGE gels and detected by anti-Myc (GNI) antibody via western blots.

[2] = tested on: PXL1 (PXL1^LRR); experiment: Gel filtration-MALDI-TOF identification of peptides copurified with PXL1 LRR; assay type: binding, Arabidopsis; details: PXL1^LRR incubated with synthesized peptide mixture (0.1 mg each), 10 mM Bis-Tris pH 6.0, 100 mM NaCl, on ice 1 h, Superdex 200
Description: As part of an effort to identify cognate receptors for peptidyl ligands in Arabidopsis, a pool of synthetic CLE small peptides (Supplementary Table 1) was mixed with purified individual extracellular LRR domains of receptor-like kinases (RLKs). The putative RLK-ligand complexes were purified by gel-filtration, and the peptides were detected by mass spectrometry, as reported previously.
Purified PXL1^LRR protein (with buffer containing 10 mM Bis-Tris pH 6.0, 100 mM NaCl) was incubated with synthesized peptide mixture (0.1 mg for each; Supplementary Table 1) on ice for 1 h. Then, each mixture was subjected to gel filtration (Superdex 200, GE Healthcare) for analysis. The relevant peak fractions of PXL1^LRR were collected and 2 μl was used for analyzed by MALDI-TOF–mass spectrometry analysis.

[3] = tested on: PXL1 (PXL1-FLAG); experiment: In vivo phosphorylation assay, Phos-tag SDS-PAGE and western blot; assay type: cell-based, Arabidopsis; details: 10-day-old pPXL1::PXL1-FLAG seedlings, 20 µM peptide, 1.5 h; Phos-tag gel, anti-FLAG; λpp control
Description: Ten-day-old […] transgenic seedlings were tested to observe the phosphorylation status of PXL1. The seedlings were cultured in 1/2 MS liquid medium treated with mock or 20 μM CLE19, CLE19[…] or CLV3 peptide for 1.5 h and then ground to a fine powder in liquid N2 for protein extraction performed as described above. The extracted protein was analyzed by Phos-tag (Wako) gel and immunoblotting using anti-FLAG (GNI) antibody. The anti-HSP70 (Abmart) antibody was used to determine the amount of input protein. Anti-FLAG beads (Abmart) were used for immunoprecipitation to purify the PXL1-FLAG protein. Anti-pS/T (ECM) was used to detect the phosphorylation status of the PXL1 protein after CLE19 treatment. The seedling protein extracted was also treated with λpp (NEB) at 30 °C for 0.5 h and then analyzed by anti-FLAG and anti-HSP antibodies.

[4] = molecular target: PXL1 LRR (Arabidopsis thaliana) (UniProt Q9FRS6); experiment: ITC; details: cited from earlier work
[5] = molecular target: PXY LRR (Arabidopsis thaliana) (UniProt Q9FII5); experiment: ITC; details: cited from earlier work
[6] = molecular target: PXL2 LRR (Arabidopsis thaliana) (UniProt Q9M0G7); experiment: ITC; details: cited from earlier work
[7] = molecular target: PXL2 (protein used for ITC) (Arabidopsis, UniProt Q9M0G7 24-1013); experiment: ITC; CLE19 with PXL2 and with PXY; conditions not told for these proteins; details: both partners purified
[8] = molecular target: T1, PXL1^LRR (extracellular LRR domain of PXY-LIKE1, residues 1-639, 6xHis) (Arabidopsis, UniProt Q9FRS6 24-639); experiment: ITC; ITC200; 1 mM CLE19 titrated into 0.1 mM PXL1^LRR in the cell, 20 injections; 10 mM Bis-Tris pH 6.0, 100 mM NaCl; 25 °C; details: both partners purified
T1 construct: signal peptide in the construct; PXL1 (PXY-LIKE1), Arabidopsis, AT1G08590, LRR domains, residues 1-639; also called PXL1 ectodomain; PXL1^LRR-6×His; source: High Five cells, purified (Ni-NTA, size-exclusion chromatography)
T1 sequence (looked up): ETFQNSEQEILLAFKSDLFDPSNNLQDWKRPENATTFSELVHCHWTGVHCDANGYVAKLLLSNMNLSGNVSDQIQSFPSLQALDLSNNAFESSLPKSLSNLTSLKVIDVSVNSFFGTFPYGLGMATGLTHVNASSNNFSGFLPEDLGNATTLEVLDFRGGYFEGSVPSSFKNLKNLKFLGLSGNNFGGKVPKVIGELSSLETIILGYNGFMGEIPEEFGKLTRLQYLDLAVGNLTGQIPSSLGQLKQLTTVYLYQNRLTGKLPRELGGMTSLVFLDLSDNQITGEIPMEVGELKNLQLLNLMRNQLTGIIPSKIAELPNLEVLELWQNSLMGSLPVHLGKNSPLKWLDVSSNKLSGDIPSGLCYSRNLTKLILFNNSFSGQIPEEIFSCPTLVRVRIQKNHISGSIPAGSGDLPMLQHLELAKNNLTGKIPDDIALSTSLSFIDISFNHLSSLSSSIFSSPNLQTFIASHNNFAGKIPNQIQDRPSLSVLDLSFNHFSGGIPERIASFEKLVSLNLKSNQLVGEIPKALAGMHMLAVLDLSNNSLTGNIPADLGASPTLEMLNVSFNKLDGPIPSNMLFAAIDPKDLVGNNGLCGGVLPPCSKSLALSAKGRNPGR

Chain of PXL2 (protein used for ITC) (Q9M0G7 24-1013): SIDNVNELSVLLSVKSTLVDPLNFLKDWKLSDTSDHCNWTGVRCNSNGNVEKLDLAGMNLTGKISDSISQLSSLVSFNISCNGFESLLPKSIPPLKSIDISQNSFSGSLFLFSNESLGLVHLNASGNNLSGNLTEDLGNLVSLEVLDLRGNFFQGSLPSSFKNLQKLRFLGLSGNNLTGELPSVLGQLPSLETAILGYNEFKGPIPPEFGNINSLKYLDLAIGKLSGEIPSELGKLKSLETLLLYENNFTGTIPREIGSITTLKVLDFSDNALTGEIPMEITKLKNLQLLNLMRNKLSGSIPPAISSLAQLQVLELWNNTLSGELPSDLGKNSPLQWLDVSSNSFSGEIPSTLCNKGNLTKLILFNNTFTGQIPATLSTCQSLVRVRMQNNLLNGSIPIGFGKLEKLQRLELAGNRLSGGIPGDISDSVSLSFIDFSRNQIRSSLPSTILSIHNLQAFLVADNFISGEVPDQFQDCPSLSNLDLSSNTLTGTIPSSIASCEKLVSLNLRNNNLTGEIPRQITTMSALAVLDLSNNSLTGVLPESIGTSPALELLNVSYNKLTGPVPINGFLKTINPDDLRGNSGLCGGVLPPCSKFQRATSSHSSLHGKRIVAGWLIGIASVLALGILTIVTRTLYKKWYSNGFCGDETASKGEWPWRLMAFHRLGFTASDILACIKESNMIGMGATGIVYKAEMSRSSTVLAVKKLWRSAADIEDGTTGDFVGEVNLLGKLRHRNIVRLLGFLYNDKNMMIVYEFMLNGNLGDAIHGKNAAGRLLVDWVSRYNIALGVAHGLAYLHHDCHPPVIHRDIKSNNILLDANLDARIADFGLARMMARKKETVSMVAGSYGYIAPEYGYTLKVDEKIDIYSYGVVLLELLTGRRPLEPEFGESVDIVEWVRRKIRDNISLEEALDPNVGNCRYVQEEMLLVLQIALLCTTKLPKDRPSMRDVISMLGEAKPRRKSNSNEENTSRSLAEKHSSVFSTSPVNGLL
Chain of PXL2 LRR (Arabidopsis thaliana) (Q9M0G7 24-633): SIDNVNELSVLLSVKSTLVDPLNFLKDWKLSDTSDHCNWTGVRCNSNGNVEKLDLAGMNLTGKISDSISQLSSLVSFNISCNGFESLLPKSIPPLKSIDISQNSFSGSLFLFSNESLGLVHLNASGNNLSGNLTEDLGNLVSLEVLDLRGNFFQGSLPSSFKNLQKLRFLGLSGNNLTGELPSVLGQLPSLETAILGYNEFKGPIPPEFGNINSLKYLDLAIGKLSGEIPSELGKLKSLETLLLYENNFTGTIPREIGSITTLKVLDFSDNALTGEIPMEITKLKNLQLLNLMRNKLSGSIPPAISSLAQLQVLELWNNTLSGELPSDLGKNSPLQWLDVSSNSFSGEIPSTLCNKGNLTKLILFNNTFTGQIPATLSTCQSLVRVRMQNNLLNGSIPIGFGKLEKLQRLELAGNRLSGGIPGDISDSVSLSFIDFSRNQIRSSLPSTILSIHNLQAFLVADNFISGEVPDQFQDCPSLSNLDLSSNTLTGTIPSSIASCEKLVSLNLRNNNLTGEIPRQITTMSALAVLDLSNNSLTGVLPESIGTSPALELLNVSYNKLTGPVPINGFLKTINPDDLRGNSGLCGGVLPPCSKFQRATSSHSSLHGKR
Chain of PXY LRR (Arabidopsis thaliana) (Q9FII5 30-652): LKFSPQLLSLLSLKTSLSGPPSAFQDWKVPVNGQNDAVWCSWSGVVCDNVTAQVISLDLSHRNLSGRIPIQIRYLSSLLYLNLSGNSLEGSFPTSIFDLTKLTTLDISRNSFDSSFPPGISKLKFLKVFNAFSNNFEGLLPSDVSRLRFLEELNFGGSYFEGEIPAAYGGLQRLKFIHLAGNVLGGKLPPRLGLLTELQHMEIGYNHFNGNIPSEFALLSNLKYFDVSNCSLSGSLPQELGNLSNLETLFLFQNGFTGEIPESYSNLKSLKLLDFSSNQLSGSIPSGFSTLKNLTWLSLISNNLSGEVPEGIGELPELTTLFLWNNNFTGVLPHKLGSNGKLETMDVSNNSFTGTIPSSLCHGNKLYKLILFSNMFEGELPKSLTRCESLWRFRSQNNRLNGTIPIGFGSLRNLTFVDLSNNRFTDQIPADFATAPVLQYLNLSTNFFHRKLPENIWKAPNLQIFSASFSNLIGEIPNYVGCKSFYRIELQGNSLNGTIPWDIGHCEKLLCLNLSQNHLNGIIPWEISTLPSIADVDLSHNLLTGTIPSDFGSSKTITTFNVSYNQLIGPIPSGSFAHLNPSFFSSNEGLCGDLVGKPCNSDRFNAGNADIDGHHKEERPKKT

## CLAVATA3 [CLV3]
[1]
  PXL1^∆KD-SERK1^∆KD interaction (co-IP): no such interaction was detected in the absence of CLE19 or the presence of CLV3
[2]
  CLE peptide copurified with PXL1: interaction with PXL1 was not detected; also recorded: CLE19 was the only CLE peptide that co-purified with PXL1; also recorded: but not CLV3, CLE3, CLE6, and others
[3]
  PXL1 phosphorylation (Phos-tag migration): Neither CLE19G6T nor CLV3 induced the phosphorylation-related migration of PXL1; also recorded: PXL1 phosphorylation was not induced

## CLE3: synthetic CLE small peptide of the pool (RLSPGGPDPRHH; ends and bridges not checked; UniProt Q3EDH8 72-83, looked up)
[2]
  CLE peptide copurified with PXL1: CLE19 was the only CLE peptide that co-purified with PXL1; also recorded: but not CLV3, CLE3, CLE6, and others

## CLE6: synthetic CLE small peptide of the pool (RVSPGGPDPQHH; ends and bridges not checked; UniProt Q8S8N3 70-81, looked up)
[2]
  CLE peptide copurified with PXL1: CLE19 was the only CLE peptide that co-purified with PXL1; also recorded: but not CLV3, CLE3, CLE6, and others

## CLE8: CLE peptide (RRVPTGPNPLHH; ends and bridges not checked; UniProt Q2V4E2 61-72, looked up)
[2]
  CLE peptide copurified with PXL1: CLE19 was the only CLE peptide that co-purified with PXL1

## CLE9: CLE peptide (RLVPSGPNPLHN; ends and bridges not checked; UniProt Q9FZE4 109-120, looked up)
[2]
  CLE peptide copurified with PXL1: CLE19 was the only CLE peptide that co-purified with PXL1

## CLE11: CLE peptide (RVVPSGPNPLHH; ends and bridges not checked; UniProt Q3ECU1 88-99, looked up)
[2]
  CLE peptide copurified with PXL1: CLE19 was the only CLE peptide that co-purified with PXL1

## CLE12: CLE peptide (RRVPSGPNPLHH; ends and bridges not checked; UniProt Q29PU4 107-118, looked up)
[2]
  CLE peptide copurified with PXL1: CLE19 was the only CLE peptide that co-purified with PXL1

## CLE14: CLE peptide (RLVPKGPNPLHN; ends and bridges not checked; UniProt Q3ECJ5 68-79, looked up)
[2]
  CLE peptide copurified with PXL1: CLE19 was the only CLE peptide that co-purified with PXL1

## CLE16: CLE peptide (RLVHTGPNPLHN; ends and bridges not checked; UniProt Q8S8M2 92-103, looked up)
[2]
  CLE peptide copurified with PXL1: CLE19 was the only CLE peptide that co-purified with PXL1

## CLE18: CLE peptide (RQIPTGPDPLHN; ends and bridges not checked; UniProt Q3ECH9 37-48, looked up)
[2]
  CLE peptide copurified with PXL1: CLE19 was the only CLE peptide that co-purified with PXL1

## CLE19G6T: functionally inactive CLE19G6T (RVIPTTPNPLHN; ends and bridges not checked; UniProt Q8W261 62-73, looked up, variant G6T)
[3]
  PXL1 phosphorylation (Phos-tag migration): Neither CLE19G6T nor CLV3 induced the phosphorylation-related migration of PXL1; also recorded: PXL1 phosphorylation was not induced; also recorded: lost the ability of inducing PXL1 phosphorylation

## CLE20: CLE peptide (RKVKTGSNPLHN; ends and bridges not checked; UniProt Q3EDI6 70-81, looked up)
[2]
  CLE peptide copurified with PXL1: CLE19 was the only CLE peptide that co-purified with PXL1

## CLE25: CLE peptide (RKVPNGPDPIHN; ends and bridges not checked; UniProt Q8LFL4 58-69, looked up)
[2]
  CLE peptide copurified with PXL1: CLE19 was the only CLE peptide that co-purified with PXL1

## CLE40: CLE peptide (RQVPTGSDPLHH; ends and bridges not checked; UniProt Q9LXU0 62-73, looked up)
[2]
  CLE peptide copurified with PXL1: CLE19 was the only CLE peptide that co-purified with PXL1

## CLE41 (from UniProt Q84W98)
[4]
  Kd: 2100 nM
[5]
  Kd: 33 nM
[6]
  Kd: 9900 nM

## CLE43: CLE peptide (RRIPSSPDRLHN; ends and bridges not checked; UniProt Q6IWB1 85-96, looked up)
[2]
  CLE peptide copurified with PXL1: CLE19 was the only CLE peptide that co-purified with PXL1

## CLE45: CLE peptide (RRVRRGSDPIHN; ends and bridges not checked; UniProt Q6IWA9 107-118, looked up)
[2]
  CLE peptide copurified with PXL1: CLE19 was the only CLE peptide that co-purified with PXL1

## CLE46: CLE peptide (HKHPSGPNPTGN; ends and bridges not checked; UniProt Q8LDN4 58-69, looked up)
[2]
  CLE peptide copurified with PXL1: CLE19 was the only CLE peptide that co-purified with PXL1

## RVIPTGPNPLHN (ends and bridges not checked)
[7]
  Kd: 714 nM

## RVIPTGPNPLHN
[8]
  Kd: ~346 nM
